# Measurements published in article PMC7567097, “A nanoluciferase SARS-CoV-2 for rapid neutralization testing and screening of anti-infective drugs for COVID-19” (Nature Communications, 2020).
# Where two headings read alike, the source gives them in different places.
# Experiments:
# [1] = tested on: SARS-CoV-2-Nluc; test: microbe, parasite or virus in culture; assay type: cell-based
# [2] = in vitro; settings: human
# [3] = data from literature; ref [51]-[68]; cited from earlier work
# [4] = tested on: A549-hACE2 cells
# [5] = human exposures in the clinic, approved dosing schedules; ref [51]-[68]; cited from earlier work
# [6] = Severe acute respiratory syndrome coronavirus 2, 48 h
# [7] = Severe acute respiratory syndrome coronavirus 2, read-out: EC50 (µM) Replicate 1
# [8] = Severe acute respiratory syndrome coronavirus 2, read-out: EC50 (µM) Replicate 2
# [9] = read-out: EC50 (µM) Replicate 1
# [10] = read-out: EC50 (µM) Replicate 2
Compound,"EC50 [1, 6]","EC50 [1, 7]","EC50 [1, 8]",CC50 ([2]; CC50),CC50 ([2]; CC50 (µM) Replicate 1),CC50 ([2]; CC50 (µM) Replicate 2),Plasma protein binding [3],"EC50 [1, 9]","EC50 [1, 10]",CC50 [4],EC50 [1],Selectivity index (SI) = CC50/EC50 [1],EC50 ([1]; read-out: EC50),Exposure Cmin [5]
Nc1ccn([C@@H]2O[C@@](CO)(CCl)[C@@H](O)[C@H]2F)c(=O)n1 [ALS-8112],> 10 µM,> 10 µM,> 10 µM,> 50 µM,> 50 µM,> 50 µM,,,,,,,,
CC(C)CN(C[C@@H](O)[C@H](Cc1ccccc1)NC(=O)O[C@H]1CCOC1)S(=O)(=O)c1ccc(N)cc1 [Amprenavir],> 10 µM,> 10 µM,> 10 µM,> 50 µM,> 50 µM,> 50 µM,90%,,,,,,,
COC(=O)N[C@H](C(=O)N[C@@H](Cc1ccccc1)[C@@H](O)CN(Cc1ccc(-c2ccccn2)cc1)NC(=O)[C@@H](NC(=O)OC)C(C)(C)C)C(C)(C)C [Atazanavir],> 10 µM,> 10 µM,> 10 µM,> 50 µM,> 50 µM,> 50 µM,,,,,,,,
O=C1c2c(O)c(=O)ccn2N([C@@H]2c3ccccc3SCc3c2ccc(F)c3F)[C@@H]2COCCN12 [Baloxavir],> 10 µM,> 10 µM,> 10 µM,47 ± 1.3 µM,46 µM,47.9 µM,,,,,,,,
O=C(NCc1c(F)cc(F)cc1F)c1cn2c(c(O)c1=O)C(=O)N1[C@H]3CC[C@H](C3)O[C@@H]1C2 [Bictegravirt],,,,,,,,> 10 µM,> 10 µM,> 50 µM,,,,
Nc1ccn(C[C@@H](CO)OCP(=O)(O)O)c(=O)n1 [Cidofovir],> 10 µM,> 10 µM,> 10 µM,> 50 µM,> 50 µM,> 50 µM,,,,,,,,
CC(C)c1nc(CN(C)C(=O)N[C@@H](CCN2CCOCC2)C(=O)N[C@H](CC[C@H](Cc2ccccc2)NC(=O)OCc2cncs2)Cc2ccccc2)cs1 [Cobicistat],2.7 µM,2.6 µM,2.88 µM,47.3 ± 2.5 µM,45.6 µM,49.1 µM,,,,,2.74 ± 0.2 µM,17.3,,
CC(C)CN(C[C@@H](O)[C@H](Cc1ccccc1)NC(=O)O[C@H]1CO[C@H]2OCC[C@H]21)S(=O)(=O)c1ccc(N)cc1 [Darunavir],> 10 µM,> 10 µM,> 10 µM,> 50 µM,> 50 µM,> 50 µM,,,,,,,,
C=C1[C@H](CO)[C@@H](O)C[C@@H]1n1cnc2c(=O)[nH]c(N)nc21 [Entecavir],> 10 µM,> 10 µM,> 10 µM,> 50 µM,> 50 µM,> 50 µM,,,,,,,,
"NC(=O)c1nc(F)c[nH]c1=O [Favipiravir (T-705), Favipiravir]",> 10 µM,> 10 µM,> 10 µM,> 50 µM,> 50 µM,> 50 µM,,,,,,,,
CC(C)OC(=O)[C@H](C)N[P@](=O)(OC[C@H]1O[C@@](C#N)(c2ccc3c(N)ncnn23)[C@](C)(O)[C@@H]1OC(=O)C(C)C)Oc1ccccc1 [GS-6620],> 10 µM,> 10 µM,> 10 µM,> 50 µM,> 50 µM,> 50 µM,,,,,,,,
COc1ccc2c(O[C@@H]3C[C@H]4C(=O)N[C@]5(P(=O)(O)Cc6c(F)cccc6F)C[C@H]5CCCCCCC[C@H](NC(=O)OC5CCCC5)C(=O)N4C3)cc(-c3csc(NC(C)C)n3)nc2c1Cl [GS-9256],> 10 µM,> 10 µM,> 10 µM,31.8 ± 10.9 µM,39.5 µM,24.1 µM,,,,,,,,
CC[C@@H]1C[C@]1(NC(=O)[C@@H]1C[C@@H](Oc2cc(-c3csc(NC(C)C)n3)nc3c(Cl)c(OCCN4CCOCC4)ccc23)CN1C(=O)[C@@H](NC(=O)O[C@@H]1C[C@@H]2C[C@@H]2C1)C(C)(C)C)C(=O)O [GS-9451],> 10 µM,> 10 µM,> 10 µM,> 50 µM,> 50 µM,> 50 µM,,,,,,,,
N#C[C@@]1(c2ccc3c(N)ncnn23)O[C@H](CO)[C@@H](O)[C@H]1O [GS-441524],0.869 ± 0.289 µM,1.07 µM,0.665 µM,> 50 µM,> 50 µM,> 50 µM,,,,,,,,
C=CC(=O)N1CCC[C@@H](n2nc(-c3ccc(Oc4ccccc4)cc3)c3c(N)ncnc32)C1 [Ibrutinib],> 10 µM,,,> 50 µM,,,,,,,,,,
C=CC(=O)N1CCC[C@@H](n2nc(-c3ccc(Oc4ccccc4)cc3)c3c(N)ncnc32)C1 [Ibrutinibj],,,,,,,,> 10 µM,> 10 µM,> 50 µM,,,,
CC(C)(C)NC(=O)[C@@H]1CN(Cc2cccnc2)CCN1C[C@@H](O)C[C@@H](Cc1ccccc1)C(=O)N[C@H]1c2ccccc2C[C@H]1O [Indinavir],> 10 µM,> 10 µM,> 10 µM,> 50 µM,> 50 µM,> 50 µM,,,,,,,,
COC(=O)N[C@H](C(=O)N1CC2(CC2)C[C@H]1c1ncc(-c2ccc3c(c2)C(F)(F)c2cc(-c4ccc5nc([C@@H]6[C@H]7CC[C@H](C7)N6C(=O)[C@@H](NC(=O)OC)C(C)C)[nH]c5c4)ccc2-3)[nH]1)C(C)C [Ledapisvir],> 10 µM,> 10 µM,> 10 µM,> 50 µM,> 50 µM,> 50 µM,,,,,,,,

Compound,"EC50 [1, 6]","EC50 [1, 7]","EC50 [1, 8]",CC50 ([2]; CC50),CC50 ([2]; CC50 (µM) Replicate 1),CC50 ([2]; CC50 (µM) Replicate 2),Plasma protein binding [3],"EC50 [1, 9]","EC50 [1, 10]",CC50 [4],EC50 [1],Selectivity index (SI) = CC50/EC50 [1],EC50 ([1]; read-out: EC50),Exposure Cmin [5]
C[C@@]1(O)[C@H](O)[C@@H](CO)O[C@H]1n1ccc2c(N)ncnc21 [MK-0608],,,,,,,,> 10 µM,> 10 µM,> 50 µM,,,> 10 µM,
O=C(Nc1ccc([N+](=O)[O-])cc1Cl)c1cc(Cl)ccc1O [Niclosamide],0.715 ± 0.332 µM,0.95 µM,0.48 µM,1.28 ± 0.23 µM,1.44 µM,1.12 µM,,,,,,1.8,,
"CC(C)[C@@]1(C(=O)N[C@H]2CC(=O)O[C@]2(O)CF)CC(c2nccc3ccccc23)=NO1 [Nivocasan (GS-9450), Nivocasan]",,,,,,,,> 10 µM,> 10 µM,> 50 µM,,,> 10 µM,
CCC(CC)O[C@@H]1C=C(C(=O)O)C[C@H](N)[C@H]1NC(C)=O [Oseltamivir carboxylate],> 10 µM,> 10 µM,> 10 µM,> 50 µM,> 50 µM,> 50 µM,,,,,,,,
CCOc1nc(N)nc2c1ncn2[C@@H]1O[C@@H]2COP(=O)(OC(C)C)O[C@H]2[C@@]1(C)F (some centres unmarked) [PSI-352938],> 10 µM,> 10 µM,> 10 µM,> 50 µM,> 50 µM,> 50 µM,,,,,,,,
Cc1cn2nc([C@@H]3CCCCN3C(=O)c3cc(Cl)ccc3NS(C)(=O)=O)cc2nc1N1CC[C@H](N)C1 [Presatovir],2.53 ± 0.69 µM,3.01 µM,2.04 µM,,,,,,,,,,,
CC1=CC[C@H](C(=O)N(c2cc(C#CC(C)(C)C)sc2C(=O)O)[C@H]2CC[C@](O)(CO[C@H]3CCOC3)CC2)CC1 [Radalbuvir],> 10 µM,> 10 µM,> 10 µM,> 50 µM,> 50 µM,> 50 µM,,,,,,,,
NC(=O)c1ncn([C@@H]2O[C@H](CO)[C@@H](O)[C@H]2O)n1 [Ribavirin],> 10 µM,> 10 µM,> 10 µM,> 50 µM,> 50 µM,> 50 µM,,,,,,,,
CC(C)c1nc(CN(C)C(=O)N[C@H](C(=O)N[C@@H](Cc2ccccc2)C[C@H](O)[C@H](Cc2ccccc2)NC(=O)OCc2cncs2)C(C)C)cs1 [Ritonavir],> 10 µM,> 10 µM,> 10 µM,,,,,,,,,,,
"CCOC(=O)[C@H](C)N[P@](=O)(CO[C@@H]1C=C(F)[C@H](n2cnc3c(N)ncnc32)O1)Oc1ccccc1 [Rovafovir (GS-9131), Rovafovir]",,,,,,,,> 10 µM,> 10 µM,,,,> 10 µM,
CCOC(=O)/C=C/[C@H](C[C@@H]1CCNC1=O)NC(=O)[C@@H](CC(=O)[C@@H](NC(=O)c1cc(C)on1)C(C)C)Cc1ccc(F)cc1 [Rupintrivir],1.87 ± 0.47 µM,1.53 µM,2.2 µM,> 50 µM,> 50 µM,> 50 µM,,,,,,>26.7,,
CC(C)(C)NC(=O)[C@@H]1C[C@@H]2CCCC[C@@H]2CN1C[C@@H](O)[C@H](Cc1ccccc1)NC(=O)[C@H](CC(N)=O)NC(=O)c1ccc2ccccc2n1 [Saquinavir],8.95 ± 0.31 µM,8.73 µM,9.17 µM,35.1 ± 11.7 µM,43.4 µM,26.8 µM,,,,,,3.9,,650 nM
CC(C)OC(=O)[C@H](C)N[P@](=O)(OC[C@H]1O[C@@H](n2ccc(=O)[nH]c2=O)[C@](C)(F)[C@@H]1O)Oc1ccccc1 [Sofosbuvir],> 10 µM,> 10 µM,> 10 µM,> 50 µM,> 50 µM,> 50 µM,,,,,,,,
Fc1ccccc1-c1nc2ccn(Cc3ccc(-c4ccc(C(F)(F)F)cc4C(F)(F)F)nn3)cc-2n1 [Tegobuvir],> 10 µM,> 10 µM,> 10 µM,17.9 ± 3.1 µM,20 µM,15.7 µM,,,,,,,,
CC#CC(=O)N1CC[C@@H](n2c(=O)n(-c3ccc(Oc4ccccc4)cc3)c3c(N)ncnc32)C1 [Tirabrutinib],> 10 µM,> 10 µM,> 10 µM,> 50 µM,> 50 µM,> 50 µM,,,,,,,,
COC[C@H]1C[C@@H](c2ncc(-c3ccc4c(c3)COc3cc5c(ccc6nc([C@@H]7CC[C@H](C)N7C(=O)[C@@H](NC(=O)OC)C(C)C)[nH]c65)cc3-4)[nH]2)N(C(=O)[C@H](NC(=O)OC)c2ccccc2)C1 [Velpatasvir],> 10 µM,> 10 µM,> 10 µM,> 50 µM,> 50 µM,> 50 µM,,,,,,,,
Voxilaprevir,,,,,,,,> 10 µM,> 10 µM,,,,> 10 µM,
